Structures can show the parent of a compound that is named as a salt.
Assays:
α7 nAChR = molecular target: T1, α7 nAChR (Homo sapiens, UniProt P36544); experiment: Inhibition of α7 ACh-evoked responses; format: cell-based; conditions: for effect on 60 µM ACh response at 1 mM: compound 1 mM co-applied with 60 µM ACh
T1 construct: expressed in transfected cells; host or cells: Xenopus laevis oocytes (injected RNA)
Experimental: Figure 4 Effects sulfonium compounds on α7 ACh-evoked net-charge responses. (A) Effects of the sulfonium compounds at 100 µM co-applied with 60 µM relative to responses to 60 µM ACh applied alone. Data are the averages (±SEM) from seven or eight cells under each condition. (B) Effects of select sulfonium compounds at 1 mM co-applied with 60 µM relative to responses to 60 µM ACh applied alone. Data are the averages (±SEM) from seven or eight cells under each condition. Statistical significance was determined by pairwise t-test with p values corrected for multiple comparisons; * p < 0.05, ** p < 0.001.
The sulfonium compounds that were active with TQS but produced little inhibition of ACh response at a concentration of 100 µM were tested as inhibitors of ACh response at a concentration of 1 mM (Figure 4B).
We tested S8 across a range of concentrations for its ability to inhibit 60 µM ACh responses (Figure 5A). Note that we use 60 µM as an ACh control because this concentration gives nearly maximal (93%) net-charge responses, with the time course of the responses roughly following the speed of solution exchange. […] We tested whether inhibition of α7 responses by S8 was surmountable by increasing ACh concentration, consistent with a competitive mechanism of inhibition. However, since α7 responses to concentrations of ACh greater than 60 µM occur more rapidly than solution exchange in the chamber, we first pre-applied 5 µM S8 prior to the co-application of 5 µM S8 with either 60 µM or 1 mM ACh (Figure 5B). The 60 µM net-charge responses were reduced to 28 ± 2% of controls (n = 8) and 60 µM peak currents to 21 ± 3 % controls. The 1 mM net-charge responses were reduced to 56 ± 6 % of those obtained without S8 co-application, although the S8 co-application increased the peak-current amplitudes compared to 60 µM controls from 1.78 ± 0.15 to 3.72 ± 0.81 (n = 8).
Figure 5 Inhibition of α7 ACh-evoked responses by S8. (A) Concentration-response studies of α7 net-charge responses to 60 µM ACh co-applied with increasing concentrations of S8. To confirm the stability of the ACh responses, applications of ACh plus S8 were alternated with applications of ACh alone. Data are the averages of eight cells (±SEM). See text for curve-fit values. (B) Effects of 5 µM S8 on responses to either 60 µM or 1 mM ACh. The traces shown across the top are the averaged raw data from seven cells, each normalized to the peak current of the first ACh control response shown. In order to assure that the S8 was present at 5 µM throughout the ACh-evoked responses, a 30 s pre-application was made of 5 µM S8 alone. The lower traces show averaged responses to 60 µM or 1 mM ACh alone or with the 5 µM S8 pre- and co-application. The details of the data are described in Methods.
Experiments were conducted using OpusXpress 6000A (Molecular Devices, Union City, CA, USA). Both the voltage and current electrodes were filled with 3 M KCl. Oocytes were voltage-clamped at −60 mV at room temperature (24 °C). The oocytes were bath-perfused with Ringer’s solution (115 mM NaCl, 2.5 mM KCl, 1.8 mM CaCl2, 10 mM HEPES, and 1 μM atropine, pH 7.2) at 2 mL/min for α7 receptors, or 4 mL/min for heteromeric nAChR. To evaluate the effects of experimental compounds, responses were compared to control ACh-evoked responses, defined as the average of two initial applications of ACh made before test applications. ACh control concentrations were 60 µM for α7 receptors; 100 µM for α4(3)β2(2) and α3β4 receptors; 30 µM for α4β2α6β2β3 and muscle-type (αβ1εδ) receptors; and 10 µM for α4(3)β2(2) and α4(2)β2(2)α5 receptors.
Solutions were applied from 96-well plates via disposable tips. Drug applications were 12 s in duration, followed by 181 s washout periods for α7 receptors, or 6 s in duration followed by 301 s washout periods for heteromeric nAChR. […]

α4(3)β2(2) = molecular target: T2, α4(3)β2(2) (Homo sapiens, UniProt P17787+P43681); experiment: Activation of heteromeric nAChR by S1: α4(3)β2(2); format: cell-based
T2 construct: expressed in transfected cells; host or cells: Xenopus laevis oocytes (injected RNA)
Source text: Concatamers were used in order to obtain heteromeric receptors with known subunit composition. The β2-6-α4 concatamer was co-expressed with monomeric α4, β2, or α5 to obtain receptors with the composition α4(3)β2(2), α4(2)β2(3), or α4(2)β2(2)α5, respectively. A concatamer of five linked subunits was used to obtain the β3α4 β2α6β2 receptors. The α3β4 receptors were formed from the co-expression of α3 and β4 subunit monomers at equal ratios. Note that the data were initially measured relative to internal ACh control responses for each oocyte (Methods). Responses were subsequently adjusted for the relative values of the ACh controls and the ACh maximum responses for each of the various subtypes, determined in previous experiments.
Figure 6 Activation of heteromeric neuronal nAChR by S1. […] Data are the average peak currents (n = 6–8 oocytes ± SEM), measured relative to initial ACh control responses for each oocyte (concentrations listed in Methods). Responses were subsequently adjusted for the relative values of the ACh controls and the ACh maximum responses for each of the various subtypes, determined in previous experiments. […]
Solutions were applied from 96-well plates via disposable tips. […] The responses were calculated as both peak current amplitudes and net charge, as previously described. […] Multi-cell averages were calculated for comparisons of complex responses. […]

T1 sequence (P36544 23-502): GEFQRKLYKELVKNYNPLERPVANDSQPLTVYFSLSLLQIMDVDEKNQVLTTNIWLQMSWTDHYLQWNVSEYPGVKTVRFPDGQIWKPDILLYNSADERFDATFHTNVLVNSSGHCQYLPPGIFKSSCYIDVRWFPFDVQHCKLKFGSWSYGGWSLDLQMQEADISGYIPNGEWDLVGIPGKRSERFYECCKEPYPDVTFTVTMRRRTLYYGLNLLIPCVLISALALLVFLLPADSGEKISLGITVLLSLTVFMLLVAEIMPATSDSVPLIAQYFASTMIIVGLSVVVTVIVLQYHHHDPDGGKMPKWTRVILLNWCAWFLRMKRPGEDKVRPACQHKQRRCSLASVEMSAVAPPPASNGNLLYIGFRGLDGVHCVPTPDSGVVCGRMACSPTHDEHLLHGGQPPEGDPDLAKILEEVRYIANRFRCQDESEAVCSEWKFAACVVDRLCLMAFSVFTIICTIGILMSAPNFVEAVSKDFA
T2 sequence (P17787 26-502): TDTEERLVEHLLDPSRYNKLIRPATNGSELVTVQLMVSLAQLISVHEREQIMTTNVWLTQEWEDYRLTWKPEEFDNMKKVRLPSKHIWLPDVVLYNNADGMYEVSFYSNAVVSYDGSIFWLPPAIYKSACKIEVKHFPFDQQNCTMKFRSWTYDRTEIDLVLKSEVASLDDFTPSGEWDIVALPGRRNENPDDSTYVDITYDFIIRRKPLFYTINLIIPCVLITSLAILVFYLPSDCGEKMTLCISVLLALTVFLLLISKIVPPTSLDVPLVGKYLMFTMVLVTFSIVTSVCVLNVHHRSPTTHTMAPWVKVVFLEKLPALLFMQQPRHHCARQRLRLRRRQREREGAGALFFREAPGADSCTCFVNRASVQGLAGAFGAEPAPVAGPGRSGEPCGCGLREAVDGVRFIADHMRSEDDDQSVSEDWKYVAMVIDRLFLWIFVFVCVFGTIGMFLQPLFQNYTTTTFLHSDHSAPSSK
T2 sequence (P43681 29-627 limits assumed): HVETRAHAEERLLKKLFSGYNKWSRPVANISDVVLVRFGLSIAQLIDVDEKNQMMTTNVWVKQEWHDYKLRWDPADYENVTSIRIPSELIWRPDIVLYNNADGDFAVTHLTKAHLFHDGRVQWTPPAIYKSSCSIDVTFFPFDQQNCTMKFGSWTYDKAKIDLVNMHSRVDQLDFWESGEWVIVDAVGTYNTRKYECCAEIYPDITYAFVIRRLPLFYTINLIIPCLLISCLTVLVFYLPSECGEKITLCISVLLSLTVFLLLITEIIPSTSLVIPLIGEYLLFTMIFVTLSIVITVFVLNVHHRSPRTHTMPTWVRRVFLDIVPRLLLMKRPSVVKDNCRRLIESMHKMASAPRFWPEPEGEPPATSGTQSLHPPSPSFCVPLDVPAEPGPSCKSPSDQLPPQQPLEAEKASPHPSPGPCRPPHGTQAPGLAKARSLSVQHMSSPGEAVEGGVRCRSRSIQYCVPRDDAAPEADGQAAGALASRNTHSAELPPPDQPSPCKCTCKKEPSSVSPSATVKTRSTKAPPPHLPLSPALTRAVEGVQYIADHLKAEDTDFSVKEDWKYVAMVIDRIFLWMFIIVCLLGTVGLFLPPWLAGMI
T2 sequence (P43681 29-627 limits assumed): as above

SMILES	effect on 60 µM ACh response at 1 mM (α7 nAChR)	inhibition of responses to 60 µM ACh (α7 nAChR; compound co-applied at 100 µM, net charge)	IMax (S1 Activation) (α4(3)β2(2); peak currents relative to ACh maximum)	EC50 (α4(3)β2(2); peak currents, unit inferred)
C[S+](C)c1cc([N+](=O)[O-])ccc1O.[Br-] [Compound S10, (2-hydroxy-5-nitrophenyl)dimethylsulfonium bromide]	increased the amplitude of the ACh-evoked responses			
C[S+](C)c1ccc(O)cc1 [Compound S9, (4-hydroxyphenyl)dimethylsulfonium methyl sulfate]	significant inhibition	no inhibition		
C[S+](C)C.[I-] [Compound S1, trimethylsulfonium iodide]			1.2 ± 0.2	246 ± 104 µM

Reference: PMC8464850, “Sulfonium Ligands of the α7 nAChR” (Molecules, 2021)
